Laboratory results reported in patent US8445539B2, “Alpha-aminoamide derivatives useful in the treatment of psychiatric disorders” (priority 2007, dated 2013).

Assays:
marble burying behaviour = assay: Marble Burying test; format: in vivo; details: 80 mg/kg po; 30 min before test; CD1 mice; FIG. 1
From the text: The Marble Burying Test is considered an animal model of anxiety/obsessive-compulsive disorder (OCD). Mice which are placed individually in a cage containing a number of glass marbles spontaneously tend to bury the glass marbles present.
Several compounds which attenuate anxiety, depression, psychosis or obsessive-compulsive disorders affect this behaviour reducing the number of marbles buried. Therefore the test has predictive validity for anti-anxiety and anti-OCD potential compounds.
CD1 mice were injected with ralfinamide at the doses of 10, 30, 60 and 80 mg/kg, po; fluoxetine (FLX) at 10 mg/kg, sc or saline and returned to their home cage. After 30 min (ralfinamide) or 60 min (fluoxetine), mice were individually placed in a new cage contained 12 evenly spaced glass marbles. After 30 min mice were removed from the cages and the number of glasses buried for at least two-thirds in the sawdust was counted.
One-way ANOVA followed by Bonferroni's multiple comparison test; n=6-8 mice per group *p<0.05; p***<0.001 versus control group

[1] = tested on: d-amphetamine-induced PPI impairment; assay: Amphetamine-induced PPI deficit (ralfinamide and haloperidol association); format: in vivo; details: ralfinamide methanesulfonate per se 60 mg/kg p.o.; d-amphetamine 2.5 mg/kg s.c.; rats
Experimental: A PPI test, carried out according to the method described in Example 4, was performed in rats.

C[C@H](NCc1ccc(OCc2ccccc2F)cc1)C(N)=O [Ralfinamide methanesulfonate, (S)-(+)-2-[4-(2-fluorobenzyloxy)benzylamino]propanamide]
Number of buried marbles (marble burying behaviour): significantly reduces | Reversal of PPI impairment induced by d-amphetamine [1]: did not reverse
